From patent US4367339A, “Substituted N-nitroaniline compounds and inorganic and organic salts thereof useful for enhancing auxiliary branching, canopy flowering and crop yield of plant and as lodging inhibitors therefor” (priority 1980, dated 1983)
Where a name gives a salt, the structure may show the parent alone.

Tests used:
[1] = test system: soybean (Glycine max) Adelphia; assay: Dwarfing and stem stiffening of soybeans (plant height, greenhouse, foliar spray); type: in vivo; details: three weeks after spraying
Protocol: In the following tests, test compounds are dissolved or dispersed in acetone-water (1:1) mixtures at the final concentration corresponding to the kg/ha rates indicated in the table below. The solution also contains 0.25% v/v colloidal BIOFILM® (a product of Colloidal Products Corp.) which is a mixture of alkyl aryl polyethoxyethanol, free and combined fatty acids, glycol ethers, dialkylbenzene carboxylate and 2-propanol.
The plant species used in these tests are barley (Hordeum vulgare), (Mexico) and soybean (Glycine max)Adelphia.
The solution or dispersion of the compound under test is sprayed at a rate of 747 l/ha with a moving nozzle along an overhead stationary track. The spray nozzle moves at a constant speed over the plants.
The plants are grown in plastic pots, and are well established at the time of treatment. The seedlings of barley are 10 to 20 cm in height, while the seedlings of soybeans are at the second to third trifoliate stage. Plants are watered prior to treatment and then sprayed to provide the kg/ha rate of test compound desired. After spraying the plants are placed on greenhouse benches and watered and fertilized in accordance with normal greenhouse procedures.
Three weeks after spraying the plants are measured and harvested. Harvesting is done at the boot stage. All treatments are replicated six times and comparisons are made against untreated controls. Data obtained are reported in Table VI below as percent reduction in plant height over untreated controls.

[2] = test system: soybeans (Glycine max) Adelphia variety; assay: Increasing axillary branching and improving the canopy of broad leaf plants (soybeans); type: in vivo, soybean (Glycine max); details: three weeks after treatment
From the text: In these tests seedling soybean plants approximately three weeks old, and grown in plastic pots to the 2nd to 3rd trifoliate stage, are sprayed with solutions or dispersions of test compound prepared as described in Example 7 above. The same spraying apparatus, described in Example 7 above, is used and after spraying the plants are placed on greenhouse benches and watered and fertilized. Three weeks after treatment the plants are examined to determine what effect the application of test compound has had on the axillary branching and canopy development of the treated plants.
Increased axillary branching and improved canopy are biological responses which are highly advantageous in the growing of ornamental plants. These responses also have advantage in many crops since increased branching may result in the greater production of fruit, while improved canopy tends to shade and suppress the growth of undesirable weeds that compete with the crops for sunlight, water and plant nutrients. Data obtained are reported in table VII below where axillary branching and canopy are reported as percent increase over untreated controls.

[3] = test system: barley (Hordeum vulgare, var. Georgie); assay: Antilodging effects on barley; type: in vivo; design: key to Tiller formation / Stem stiffness: 5 = no increase over controls, 3 = moderate significant increase; details: for Stem stiffness / Tiller formation: control 5; for Weight Dry: control 5.2; for Weight Fresh: control 49.1; for Height: control 53.1; for Phytotoxicity: three weeks after spraying
Protocol: In this experiment the procedure of Example 7 is repeated excepting that the crop used was barley (Hordeum vulgare, var. Georgie; European lodging prone variety). The plants are treated at the 3-4 leaf stage. Plants are watered prior to treatment and then sprayed to provide the kg/ha rate of test compound desired. After spraying the plants are placed on greenhouse benches and watered and fertilized in accordance with normal greenhouse procedures.
Three weeks after spraying the plants are measured and harvested. All treatments are replicated six times and companions are made against untreated controls.
The following rating system is used:
5=No increase over controls
3=Moderate, significant increase over controls.

## 1,2-Dimethyl-3,5-diphenylpyrazolium salt with 2,6-dibromo-α,α,α-trifluoro-N--aci-nitro-o-toluidine
[1]; rate 0.125 kg/ha
  % Reduction in Plant Height over untreated controls: > 10%
[1]; rate 0.25 kg/ha
  % Reduction in Plant Height over untreated controls: > 15%
[1]; rate 0.5 kg/ha
  % Reduction in Plant Height over untreated controls: > 20%

## 3-(p-Fluorophenyl)-1,2-dimethyl-3,5-diphenylpyrazolium salt with 2,4,6-tribromo-N--aci-nitroaniline
[2]; rate 0.125 kg/ha
  % Increase in Plant Canopy over untreated controls: normal
  % Increase in axillary branching over untreated controls: normal
[2]; rate 0.5 kg/ha
  % Increase in axillary branching over untreated controls: normal

## Cc1cc(C)c([N-][N+](=O)[O-])c(C)c1.Cn1c(-c2ccccc2)cc(-c2ccccc2)[n+]1C [1,2-Dimethyl-3,5-diphenylpyrazolium salt with 2,4,6-Trimethyl-N--aci-nitroaniline]
[1]; rate 0.125 kg/ha
  % Reduction in Plant Height over untreated controls: slight increase
[1]; rate 0.25 kg/ha
  % Reduction in Plant Height over untreated controls: > 5%
[1]; rate 0.5 kg/ha
  % Reduction in Plant Height over untreated controls: > 10%
[2]; rate 0.125 kg/ha
  % Increase in Plant Canopy over untreated controls: normal
  % Increase in axillary branching over untreated controls: normal

## Cn1c(-c2ccccc2)cc(-c2ccccc2)[n+]1C.O=[N+]([O-])[N-]c1c(Cl)cc(Cl)cc1Cl [1,2-Dimethyl-3,5-diphenylpyrazolium salt with 2,4,6-trichloro-N--aci-nitroaniline]
[1]; rate 0.125 kg/ha
  % Reduction in Plant Height over untreated controls: > 10%
[1]; rate 0.25 kg/ha
  % Reduction in Plant Height over untreated controls: > 15%
[1]; rate 0.5 kg/ha
  % Reduction in Plant Height over untreated controls: > 25%

## Cn1c(-c2ccccc2)cc(-c2ccccc2)[n+]1C.O=[N+]([O-])[N-]c1c(Br)cc(Cl)cc1Br [1,2-Dimethyl-3,5-diphenylpyrazolium salt with 2,6-dibromo-4-chloro-N--aci-nitroaniline]
[1]; rate 0.125 kg/ha
  % Reduction in Plant Height over untreated controls: > 25%
[1]; rate 0.25 kg/ha
  % Reduction in Plant Height over untreated controls: > 30%
[1]; rate 0.5 kg/ha
  % Reduction in Plant Height over untreated controls: > 40%
[2]; rate 0.125 kg/ha
  % Increase in Plant Canopy over untreated controls: normal

## O=[N+]([O-])Nc1c(Br)cc(Br)cc1Br [1-Hexadecylpyridinium salt with 2,4,6-tribromo-N-- aci-nitro] [1-Hexadecylpyridinium salt with 2,4,6-tribromo-N-- aci-nitroaniline]
[1]; rate 0.125 kg/ha
  % Reduction in Plant Height over untreated controls: > 35%
[1]; rate 0.25 kg/ha
  % Reduction in Plant Height over untreated controls: > 35%
[1]; rate 0.5 kg/ha
  % Reduction in Plant Height over untreated controls: > 50%

## O=[N+]([O-])Nc1c(Br)cc(Br)cc1Br [1-Hexadecylpyridinium salt with 2,4,6-tribromo-N--aci-nitroa]
[2]; rate 0.125 kg/ha
  % Increase in Plant Canopy over untreated controls: normal
  % Increase in axillary branching over untreated controls: normal
[2]; rate 0.25 kg/ha
  % Increase in axillary branching over untreated controls: normal
[2]; rate 0.5 kg/ha
  % Increase in axillary branching over untreated controls: normal

## O=[N+]([O-])Nc1c(Br)cc(Br)cc1Br [2,4,6-Tribromo-N--nitroaniline, Calcium salt]
[2]; rate 0.25 kg/ha, listed as 2,4,6-Tribromo-N--aci-nitroaniline calcium salt (2:1), Calcium salt
  % Increase in Plant Canopy over untreated controls: slight reduction
[2]; rate 0.5 kg/ha, listed as 2,4,6-Tribromo-N--aci-nitroaniline calcium salt (2:1), Calcium salt
  % Increase in Plant Canopy over untreated controls: moderate reduction

## O=[N+]([O-])Nc1c(Br)cc(Br)cc1Br [2,4,6-Tribromo-N--nitroaniline, diisopropylamine (1:1)salt]
[2]; rate 0.5 kg/ha
  % Increase in Plant Canopy over untreated controls: slight reduction

## O=[N+]([O-])Nc1c(Br)cc(Br)cc1Br [2,4,6-Tribromo-N--nitroaniline, magnesium salt]
[2]; rate 0.25 kg/ha, listed as 2,4,6-Tribromo-N--aci-nitroaniline, magnesium salt (2:1)
  % Increase in Plant Canopy over untreated controls: moderate reduction
[2]; rate 0.5 kg/ha, listed as 2,4,6-Tribromo-N--aci-nitroaniline, magnesium salt (2:1)
  % Increase in Plant Canopy over untreated controls: moderate reduction

## O=[N+]([O-])Nc1c(Br)cc(Br)cc1Br [2,4,6-Tribromo-N--nitroaniline, triethylamine (1:1)salt]
[2]; rate 0.125 kg/ha
  % Increase in axillary branching over untreated controls: normal
[2]; rate 0.25 kg/ha
  % Increase in Plant Canopy over untreated controls: slight reduction
[2]; rate 0.5 kg/ha
  % Increase in Plant Canopy over untreated controls: slight reduction

## Cn1c(-c2ccccc2)cc(C2CCCCC2)[n+]1C.O=[N+]([O-])[N-]c1c(Br)cc(Br)cc1Br [3-Cyclohexyl-1,2-dimethyl-5-phenylpyrazolium salt with 2,4,6-tribromo-N--aci-nitroaniline]
[1]; rate 0.125 kg/ha
  % Reduction in Plant Height over untreated controls: > 10%
[1]; rate 0.25 kg/ha
  % Reduction in Plant Height over untreated controls: > 20%
[1]; rate 0.5 kg/ha
  % Reduction in Plant Height over untreated controls: > 40%
[2]; rate 0.5 kg/ha
  % Increase in Plant Canopy over untreated controls: slight reduction

## O=[N+]([O-])Nc1c(Br)cc(Br)cc1Br [Benzyltriethylammonium salt with 2,4,6-tribromo-N--aci-nitro] [Benzyltriethylammonium salt with 2,4,6-tribromo-N--aci-nitroaniline]
[1]; rate 0.125 kg/ha
  % Reduction in Plant Height over untreated controls: > 25%
[1]; rate 0.25 kg/ha
  % Reduction in Plant Height over untreated controls: > 35%
[1]; rate 0.5 kg/ha
  % Reduction in Plant Height over untreated controls: > 50%
[2]; rate 0.125 kg/ha
  % Increase in Plant Canopy over untreated controls: normal
  % Increase in axillary branching over untreated controls: normal
[2]; rate 0.25 kg/ha
  % Increase in axillary branching over untreated controls: normal

## O=[N+]([O-])Nc1c(Br)cc(Br)cc1Br [Dibenzylamine(1:1)with 2,4,6-tribromo-N--nitroaniline]
[1]; rate 0.125 kg/ha
  % Reduction in Plant Height over untreated controls: > 25%
[1]; rate 0.25 kg/ha
  % Reduction in Plant Height over untreated controls: > 35%
[1]; rate 0.5 kg/ha
  % Reduction in Plant Height over untreated controls: > 50%

## O=[N+]([O-])Nc1c(Br)cc(Br)cc1Br [Dodecylamine with 2,4,6-tribromo-N--nitroaniline]
[1]; rate 0.125 kg/ha
  % Reduction in Plant Height over untreated controls: > 15%
[1]; rate 0.25 kg/ha
  % Reduction in Plant Height over untreated controls: > 25%
[1]; rate 0.5 kg/ha
  % Reduction in Plant Height over untreated controls: > 35%

## O=[N+]([O-])Nc1c(Br)cccc1Br [Tallowamine compound with 2,6-dibromo-N--nitroaniline]
[3]; rate 0.25 kg/ha
  Stem stiffness: 4
  Tiller formation: 5 (No increase over controls)
  Weight Dry: 6.8 g
  Weight Fresh: 62.3 g
  Height: 54.7 cm
  Phytotoxicity: 5 (No increase over controls)
[3]; rate 0.5 kg/ha
  Stem stiffness: 4
  Tiller formation: 4
  Weight Dry: 7.5 g
  Weight Fresh: 60.1 g
  Height: 48.5 cm
  Phytotoxicity: 5 (No increase over controls)
[3]; rate 1.0 kg/ha
  Stem stiffness: 4
  Tiller formation: 4
  Weight Fresh: 55.9 g
  Height: 48.7 cm
  Phytotoxicity: 5 (No increase over controls)

## CCc1cccc(C(C)C)c1N[N+](=O)[O-] [Tallowamine compound with 2-ethyl-6-isopropyl-N--nitroanilin] [Tallowamine compound with 2-ethyl-6-isopropyl-N--nitroaniline]
[3]; rate 0.25 kg/ha
  Stem stiffness: 4
  Tiller formation: 4
  Weight Fresh: 49.2 g
  Height: 45.0 cm
  Phytotoxicity: 5 (No increase over controls)
[3]; rate 0.5 kg/ha
  Stem stiffness: 4
  Tiller formation: 4
  Weight Fresh: 47.1 g
  Height: 41.7 cm
  Phytotoxicity: 5 (No increase over controls)
[3]; rate 1.0 kg/ha
  Stem stiffness: 4
  Tiller formation: 4
  Weight Fresh: 52.4 g
  Height: 45.7 cm
  Phytotoxicity: 5 (No increase over controls)

## CCCC[P+](CCCC)(CCCC)Cc1ccc(Cl)cc1Cl.O=[N+]([O-])[N-]c1c(Br)cc(Br)cc1Br [Tributyl(2,4-dichlorobenzyl) phosphonium salt with 2,4,6-tribromo-N--aci-nitroaniline]
[2]; rate 0.125 kg/ha
  % Increase in Plant Canopy over untreated controls: normal
  % Increase in axillary branching over untreated controls: normal
[2]; rate 0.5 kg/ha
  % Increase in Plant Canopy over untreated controls: moderate reduction

## Tributyl(2,4-dichlorobenzyl)phosphonium salt with aniline
[1]; rate 0.125 kg/ha
  % Reduction in Plant Height over untreated controls: > 8%
[1]; rate 0.25 kg/ha
  % Reduction in Plant Height over untreated controls: > 25%
[1]; rate 0.5 kg/ha
  % Reduction in Plant Height over untreated controls: > 50%
